Data reported in patent US9458181B2, “Cathepsin cysteine protease inhibitors” (Merck Sharp & Dohme Corp., priority 2013, dated 2016).
pIC50: −log10 of the molar value.

How the values were obtained:
[1] = biological target: T1, human cathepsin F (Homo sapiens, UniProt Q9UBX1); assay: Cathepsin F assay (hCat F); type: biochemical; settings: human cathepsin F 10 nM, Z-Phe-Arg-AMC 8 μM, pH 5.5, 15 min preincubation; read-out: hCat F IP
T1 sequence (Q9UBX1 271-484): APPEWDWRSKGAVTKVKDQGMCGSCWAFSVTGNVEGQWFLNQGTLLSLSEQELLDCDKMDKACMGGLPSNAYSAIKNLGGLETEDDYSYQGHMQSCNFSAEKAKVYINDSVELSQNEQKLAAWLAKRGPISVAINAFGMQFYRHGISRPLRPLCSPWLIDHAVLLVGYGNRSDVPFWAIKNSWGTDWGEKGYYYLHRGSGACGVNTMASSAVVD
Protocol: Cathepsin F assay (hCat F)
(§1) Serial dilutions (⅓) from 500 μM down to 0.025 μM of test compounds were prepared in dimethyl sulfoxide (DMSO). Then 0.5 μL of DMSO from each dilution were added to 18.75 μL of assay buffer (MES, 50 mM (pH 5.5); EDTA, 2.5 mM; DTT, 2.5 mM and 10% DMSO) containing human cathepsin F (10 nM) in assay buffer solution. The assay solutions were mixed for 5-10 seconds on a shaker plate and incubated for 15 minutes at room temperature. Z-Phe-Arg-AMC (8 μM) in 6.25 μL of assay buffer was added to the assay solutions. Hydrolysis of the coumarin leaving group (AMC) was followed by spectrofluorometry (Exp, =360 nm; EmX=460 nm) for 20 minutes. Percent of inhibition were calculated by fitting experimental values to standard mathematical model for dose response curve.

[2] = biological target: human cathepsin K (UniProt P43236); assay: Cathepsin K Assay (hrbCat K); type: biochemical; settings: human cathepsin K 0.4 nM, Z-Leu-Arg-AMC 8 μM, pH 5.5, 15 min preincubation; read-out: hrbCat K IP
Protocol: Cathepsin K Assay (hrbCat K)
as §1, with “K (0.4” for “F (10”, “Z-Leu-Arg-AMC” for “Z-Phe-Arg-AMC”, “(Exλ=360” for “(Exp, =360”, “Emλ=460” for “EmX=460”, “30” for “20”

Structure (SMILES) | pIC50 [1] | pIC50 [2]
CC(C#N)NC(=O)[C@@H]1CCCC[C@H]1c1oc(-c2ccc(F)cc2)nc1-c1ccc(N2CCS(=O)(=O)CC2)cc1 (single isomer, unassigned) [Example 122, (1R,2R)-N-((S or R)-1-cyanoethyl)-2-(4-(4-(1,1-dioxidothiomorpholino)phenyl)-2-(4-fluorophenyl)oxazol-5-yl)cyclohexanecarboxamide] | 6.70 | 9.10
CC(C)C(C#N)NC(=O)[C@@H]1CCCC[C@H]1c1oc(-c2ccc(F)cc2)nc1-c1ccc(N2CCS(=O)(=O)CC2)cc1 (single isomer, unassigned) [Example 123, (1R,2R)-N-((S or R)-1-cyano-2-methylpropyl)-2-(4-(4-(1,1-dioxidothiomorpholino)phenyl)-2-(4-fluorophenyl)oxazol-5-yl)cyclohexanecarboxamide] | 6.33 | 8.67
CC(C)C(C#N)NC(=O)[C@@H]1CCCC[C@H]1c1oc(-c2ccc(F)cc2)nc1-c1ccc(N2CCS(=O)(=O)CC2)cc1 (single isomer, unassigned) [Example 124, (1R,2R)-N-((R or S)-1-cyano-2-methylpropyl)-2-(4-(4-(1,1-dioxidothiomorpholino)phenyl)-2-(4-fluorophenyl)oxazol-5-yl)cyclohexanecarboxamide] | ≤ 5.00 | 5.96
CCC(C#N)NC(=O)[C@@H]1CCCC[C@H]1c1oc(-c2ccc(F)cc2)nc1-c1ccc(N2CCS(=O)(=O)CC2)cc1 (single isomer, unassigned) [Example 125, (1R,2R)-N-((S or R)-1-cyanopropyl)-2-(4-(4-(1,1-dioxidothiomorpholino)phenyl)-2-(4-fluorophenyl)oxazol-5-yl)cyclohexanecarboxamide] | 6.98 | 9.16
CCC(C#N)NC(=O)[C@@H]1CCCC[C@H]1c1oc(-c2ccc(F)cc2)nc1-c1ccc(N2CCS(=O)(=O)CC2)cc1 (single isomer, unassigned) [Example 126, (1R,2R)-N-((R or S)-1-cyanopropyl)-2-(4-(4-(1,1-dioxidothiomorpholino)phenyl)-2-(4-fluorophenyl)oxazol-5-yl)cyclohexanecarboxamide] | 5.05 | 7.84
N#CC(CC(F)(F)F)NC(=O)[C@@H]1CCCC[C@H]1c1oc(-c2ccc(F)cc2)nc1-c1ccc(N2CCS(=O)(=O)CC2)cc1 (single isomer, unassigned) [Example 131, (1R,2R)-N-((R or S)-1-cyano-3,3,3-trifluoropropyl)-2-(4-(4-(1,1-dioxidothiomorpholino)phenyl)-2-(4-fluorophenyl)oxazol-5-yl)cyclohexanecarboxamide] | 7.85 | 9.19
N#CC(CC(F)(F)F)NC(=O)[C@@H]1CCCC[C@H]1c1oc(-c2ccc(F)cc2)nc1-c1ccc(N2CCS(=O)(=O)CC2)cc1 (single isomer, unassigned) [Example 132, (1R,2R)-N-((S or R)-1-cyano-3,3,3-trifluoropropyl)-2-(4-(4-(1,1-dioxidothiomorpholino)phenyl)-2-(4-fluorophenyl)oxazol-5-yl)cyclohexanecarboxamide] | 6.17 | 8.75
CC1CC1(C#N)NC(=O)[C@@H]1CCCC[C@H]1c1oc(-c2ccc(F)cc2)nc1-c1ccc(N2CCS(=O)(=O)CC2)cc1 (single isomer, unassigned) [Example 133, (1R,2R)-N-((2R or 2S)-1-cyano-2-methylcyclopropyl)-2-(4-(4-(1,1-dioxidothiomorpholino)phenyl)-2-(4-fluorophenyl)oxazol-5-yl)cyclohexanecarboxamide] | 5.50 | 8.60
CC1CC1(C#N)NC(=O)[C@@H]1CCCC[C@H]1c1oc(-c2ccc(F)cc2)nc1-c1ccc(N2CCS(=O)(=O)CC2)cc1 (single isomer, unassigned) [Example 134, (1R,2R)-N-((2S or 2R)-1-cyano-2-methylcyclopropyl)-2-(4-(4-(1,1-dioxidothiomorpholino)phenyl)-2-(4-fluorophenyl)oxazol-5-yl)cyclohexanecarboxamide] | ≤ 5.00 | 5.54
N#CC(CC(F)(F)F)NC(=O)[C@@H]1CC(F)(F)CC[C@H]1c1oc(C(F)(F)C(F)(F)F)nc1-c1ccc(C(=O)N2CCOCC2)cc1 (single isomer, unassigned) [Example 142, (1R,2R)-N-((R or S)-1-cyano-3,3,3-trifluoropropyl)-5,5 - difluoro-2-(4-(4-(morpholine-4-carbonyl)phenyl)-2-(perfluoroethyl)oxazol-5-yl)cyclohexanecarboxamide] | 6.35 | 8.97
N#CC(CC(F)(F)F)NC(=O)[C@@H]1CC(F)(F)CC[C@H]1c1oc(C(F)(F)C(F)(F)F)nc1-c1ccc(C(=O)N2CCOCC2)cc1 (single isomer, unassigned) [Example 143, (1R,2R)-N-((S or R)-1-cyano-3,3,3-trifluoropropyl)-5,5-difluoro-2-(4-(4-(morpholine-4-carbonyl)phenyl)-2-(perfluoroethyl)oxazol-5-yl)cyclohexanecarboxamide] | 7.85 | 9.27
N#CC(NC(=O)[C@@H]1CC(F)(F)CC[C@H]1c1oc(C(F)(F)C(F)(F)F)nc1-c1ccc(C(=O)N2CCOCC2)cc1)C1CCOCC1 (single isomer, unassigned) [Example 144, (1R,2R)-N-((R or S)-cyano(tetrahydro-2H-pyran-4-yl)methyl)-5,5-difluoro-2-(4-(4-(morpholine-4-carbonyl)phenyl)-2-(perfluoroethyl)oxazol-5-yl)cyclohcxanccarboxamide] | ≤ 5.00 | 5.82
N#CC(NC(=O)[C@@H]1CC(F)(F)CC[C@H]1c1oc(C(F)(F)C(F)(F)F)nc1-c1ccc(C(=O)N2CCOCC2)cc1)C1CCOCC1 (single isomer, unassigned) [Example 145, (1R,2R)-N-((S or R)-cyano(tetrahydro-2H-pyran-4-yl)methyl)-5,5-difluoro-2-(4-(4-(morpholine-4-carbonyl)phenyl)-2-(perfluoroethyl)oxazol-5-yl)cyclohcxanecarboxamide] | 5.96 | 8.52
CC(C)(O)C(C#N)NC(=O)[C@@H]1CCCC[C@H]1c1oc(-c2ccc(F)cc2)nc1-c1ccc(N2CCS(=O)(=O)CC2)cc1 (single isomer, unassigned) [Example 158, (1R,2R)-N-((R or S)-1-cyano-2-hydroxy-2-methylpropyl)-2-(4-(4-(1,1-dioxidothiomorpholino)phenyl)-2-(4-fluorophenyl)oxazol-5-yl)cyclohexanecarboxamide] | ≤ 5.00 | 5.01
CC(C)(O)C(C#N)NC(=O)[C@@H]1CCCC[C@H]1c1oc(-c2ccc(F)cc2)nc1-c1ccc(N2CCS(=O)(=O)CC2)cc1 (single isomer, unassigned) [Example 159, (1R,2R)-N-((S or R)-1-cyano-2-hydroxy-2-methylpropyl)-2-(4-(4-(1,1-dioxidothiomorpholino)phenyl)-2-(4-fluorophenyl)oxazol-5-yl)cyclohexanecarboxamide] | 5.16 | 7.36
N#CC1(NC(=O)[C@@H]2CCCC[C@H]2c2oc(-c3ccc(F)c(F)c3)nc2-c2ccc(N3CCS(=O)(=O)CC3)cc2)CC1 [Example 1, (1R,2R)—N-(1-Cyanocyclopropyl)-2-(2-(3,4-difluorophenyl)-4-(4-(1,1-dioxidothiomorpholino)phenyl)oxazol-5-yl)cyclohexanecarboxamide] | 6.24 | 9.41
N#CC1(NC(=O)[C@@H]2CCCC[C@H]2c2oc(C(F)(F)C(F)(F)F)nc2-c2ccc(N3CCS(=O)(=O)CC3)cc2)CC1 [Example 3, (1R,2R)—N-(1-Cyanocyclopropyl)-2-(4-(4-(1,1-dioxidothiomorpholino)phenyl)-2-(perfluoroethyl)oxazol-5-yl)cyclohexanecarboxamide] | 6.18 | 8.99
N#CC1(NC(=O)[C@@H]2CCCC[C@H]2c2oc(N3CCC(F)(F)CC3)nc2-c2ccc(N3CCS(=O)(=O)CC3)cc2)CC1 [Example 4, (1R,2R)—N-(1-Cyanocyclopropyl)-2-(2-(4,4-difluoropiperidin-1-yl)-4-(4-(1,1-dioxidothiomorpholino)phenyl)oxazol-5-yl)cyclohexanecarboxamide] | ≤ 5.00 | 8.20
N#CC1(NC(=O)[C@@H]2CCCC[C@H]2c2oc(-c3cccc(Cl)c3)nc2-c2ccc(N3CCS(=O)(=O)CC3)cc2)CC1 [Example 5, (1R,2R)-2-(2-(3-Chlorophenyl)-4-(4-thiomorpholino-1,1-dioxide-phenyl)oxazol-5-yl)-N-(1-cyanocyclopropyl)cyclohexanecarboxamide] | 6.29 | 9.25
